Experimental findings from article PMC10985113, “Exploring bi-carbazole-linked triazoles as inhibitors of prolyl endo peptidase via integrated in vitro and in silico study” (Scientific Reports, 2024) are described below.

In general, inhibition refers to how much of the control response was suppressed. Usually IC50 stands for the concentration that inhibits the measured activity by half. One may read the Ki as the equilibrium dissociation constant of an inhibitor or competing ligand from its target.

Data set [1] deals with human fibroblast BJ cell line. The data set can be described thus: Cytotoxicity evaluation (MTT) on BJ cell line. Type of data set: cell-based. The conditions noted are these: BJ cells; for Cytotoxicity effect / % Inhibition ± SEM (µM): 60 µM; for % Inhibition of cell viability (60 µM) / inhibition at 60 µM / % Inhibition ± SEM (µM): 48 h; for inhibition at 60 µM: Homo sapiens, read-out: % Inhibition ± SEM; for inhibition at 60 µM / % Inhibition ± SEM (µM): mean of three. On the procedure: To investigate the cytotoxic effect of these compounds we proceeded all the active compounds 3–9 for their in-vitro study by using BJ cell line. Here we designed our experiment with a specific count of the cells with 6 × 10^4 cells/well were employed into the plate. In each well we added 100 µL followed by 24 h incubation at specific temperature 37 °C in 5% CO2. After that, the 96-well plate was incubated with 50 µL/well (60 µM) of the tested compounds along with 150 µL/well fresh media for 48 h at the similar specific experimental conditions. After 2nd time of incubation, the old media was replaced with 200 µL yellow MTT dye in each well according to 1:10 ratio with the media followed by 4-h incubation. In the next step the dye was removed completely and DMSO (Dimethyl sulfoxide) cell culture grade 100 µL/well was employed into the 96-well plate to dissolve the produced formazan crystals of MTT dye converted into purple. At the end of experiment the obtained changes in the (OD) optical density was monitored at 540 by using spectrophotometer.

The target of another data set is prolyl endopeptidase (Elizabethkingia meningoseptica, UniProt P27028). The data set can be described thus: In vitro prolyl endopeptidase inhibitory assay (spectrophotometric, Z-Gly-Pro-4-nitroanilide substrate). Type of data set: biochemical. The conditions noted are these: triplicate, ± SEM; read-out: (IC50 ± µM) in vitro prolyl endo peptidase inhibitory activity. On the procedure: Prolyl endopeptidase inhibitory activity was measured using a slightly modified version of Yoshimoto et al. spectrophotometric technique. In a 96-well plate, 140 µL of sodium phosphate buffer (50 mM, pH 7.0), 20 µL of the test substance (0.5 mM in methanol), and 20 µL of prolyl endopeptidase solution (0.02 U/well) were added to provide a total reaction volume of […]. Blank contained 20 µL methanol, instead of the test compound, while Z-prolyl-prolinal (0.5 mM) was used as the positive control. After the reaction mixture had been incubated at 30 °C for 10 min. Now 20 µL of the substrate solution, Z-Gly-Pro-4-nitroanilide (0.4 mM in 1,4-dioxane), was added, and a 96-well plate reader was used to continually monitor the change in absorbance at 410 nm for 30 min (SpectraMax-384, Molecular Devices, CA, USA). The reaction mixture's ultimate methanol and 1,4-dioxane concentrations were 10% v/v. In 96-well microplates, each reaction was carried out in triplicate.
The current study's experiments were all carried out in triplicate, and the data were presented as the standard error of the mean (SEM). Using the statistical software EZ-FIT enzyme kinetics, the IC50 values were determined (Perrella Scientific, Inc., Amherst, NH 03031, USA). […] (1) and (2).1 %Inhibition=100-O.Dtestcompound/O.Dcontrol×100 2 SE=σ/n

A further data set concerns prolyl endo peptidase. The data set can be described thus: Kinetic studies (Lineweaver-Burk, Dixon plots) on PEP. Type of data set: biochemical. The conditions noted are these: for Ki: substrate Z-Gly-Pro-pNA 0.2-0.5 mM. On the procedure:
Secondary replot of Line weaver-Burk plot between the slopes of each line on-Line weaver-Burk plot versus different concentrations of compounds 7, 8 (B, E). Dixon plot of reciprocal of rate of reaction (velocities) versus different concentrations of compounds 7, 8 (C, F).
In kinetic study PEP (0.02 U/200 L) was incubated with a range of inhibitor different concentrations for 10 min at 30 °C. The substrate was often utilized at doses between 0.2 and 0.5 mM. The substrate solutions (Z-Gly-Pro-pNA) were added at four different concentrations (0.2, 0.3, 0.4, and 0.5 mM), starting with the lowest concentration and working up to the highest concentration, to begin the catalytic reaction. Using a 96-well plate reader, the catalytic activity of PEP was measured at 410 nm (SpectraMax-384, Molecular Devices, CA, USA).

Chain of prolyl endopeptidase (P27028 21-705): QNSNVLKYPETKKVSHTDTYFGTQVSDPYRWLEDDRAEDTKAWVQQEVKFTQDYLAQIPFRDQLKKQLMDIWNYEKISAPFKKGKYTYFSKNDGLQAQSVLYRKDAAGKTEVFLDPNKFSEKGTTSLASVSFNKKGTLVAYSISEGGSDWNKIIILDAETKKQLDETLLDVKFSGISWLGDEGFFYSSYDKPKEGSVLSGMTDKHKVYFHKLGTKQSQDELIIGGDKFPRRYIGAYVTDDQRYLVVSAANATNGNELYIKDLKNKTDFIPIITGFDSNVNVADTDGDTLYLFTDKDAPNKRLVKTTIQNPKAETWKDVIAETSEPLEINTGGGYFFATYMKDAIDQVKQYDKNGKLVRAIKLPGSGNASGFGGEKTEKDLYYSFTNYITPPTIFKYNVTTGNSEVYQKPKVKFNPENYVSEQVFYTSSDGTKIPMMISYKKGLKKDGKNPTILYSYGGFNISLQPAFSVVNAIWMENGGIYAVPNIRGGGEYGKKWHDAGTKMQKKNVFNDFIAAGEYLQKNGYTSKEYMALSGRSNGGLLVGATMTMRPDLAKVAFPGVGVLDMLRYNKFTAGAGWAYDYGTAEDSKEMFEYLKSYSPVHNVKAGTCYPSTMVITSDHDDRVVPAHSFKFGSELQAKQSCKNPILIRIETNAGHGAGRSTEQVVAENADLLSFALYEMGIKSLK

Regarding `C=Cn1c2ccccc2c2ccccc21` [Compound 3], the Cytotoxicity effect result in data set [1] is reported as “Non-toxic”. The “% Inhibition of cell viability (60 µM)” value in data set [1] (first replicate column) is listed as 26.34%; in data set [1] (second replicate column), 22.74%; in data set [1] (third replicate column), 23.95%. Further, in data set [1], the inhibition at 60 µM was 24.4 ± 1.1%.

As for `C=Cn1c2ccccc2c2cc(-c3ccc4c(c3)c3ccccc3n4C=C)ccc21` [Compound 4], the Cytotoxicity effect entry in data set [1] is recorded as “Non-toxic”. Further, the results for the “% Inhibition of cell viability (60 µM)” value in data set [1] (first replicate column), in data set [1] (second replicate column) and in data set [1] (third replicate column) were 22.75%, 21.55% and 26.34%, respectively. Moreover, the inhibition at 60 µM in data set [1] amounted to 23.6 ± 1.44%.

For `O=C(Cn1cc(Cn2c3ccccc3c3cc(-c4ccc5c(c4)c4ccccc4n5Cc4cn(CC(=O)c5ccccc5)nn4)ccc32)nn1)c1ccccc1` [Compound 5], the Cytotoxicity effect result in data set [1] is “Non-toxic”. Moreover, the “% Inhibition of cell viability (60 µM)” value is 25.14% in data set [1] (first replicate column), 22.74% in data set [1] (second replicate column) and 20.35% in data set [1] (third replicate column). Besides, the inhibition at 60 µM in data set [1] turned out to be 22.8 ± 1.38%.

As to `Cc1ccc(C(=O)Cn2cc(Cn3c4ccccc4c4cc(-c5ccc6c(c5)c5ccccc5n6Cc5cn(CC(=O)c6ccc(C)cc6)nn5)ccc43)nn2)cc1` [Compound 6], the Cytotoxicity effect entry in data set [1] is recorded as “Non-toxic”. Moreover, the “% Inhibition of cell viability (60 µM)” value is 21.55% in data set [1] (first replicate column), 20.35% in data set [1] (second replicate column) and 23.95% in data set [1] (third replicate column). In addition, the inhibition at 60 µM in data set [1] is 21.9 ± 1.05%.

`O=C(Cn1cc(Cn2c3ccccc3c3cc(-c4ccc5c(c4)c4ccccc4n5Cc4cn(CC(=O)c5ccc(Cl)cc5)nn4)ccc32)nn1)c1ccc(Cl)cc1` [Compound 7]: in data set [1], the “% Inhibition ± SEM (µM)” value was determined as 23.95 ± 1.83% and the Cytotoxicity effect entry is reported as “Non-toxic”. Besides, the “% Inhibition of cell viability (60 µM)” value in data set [1] (first replicate column) was 20.35%. The “% Inhibition of cell viability (60 µM)” value in data set [1] (second replicate column) was 26.34%. The “% Inhibition of cell viability (60 µM)” value in data set [1] (third replicate column) is 25.14%. At prolyl endopeptidase, the IC50 was determined as 26.3 ± 0.76 µM. Moreover, in the data set with prolyl endo peptidase, the “type (pattern) of inhibition” value is “mixed” and the Ki came out at 24.1 ± 0.0076 µM.

Turning to `O=C(Cn1cc(Cn2c3ccccc3c3cc(-c4ccc5c(c4)c4ccccc4n5Cc4cn(CC(=O)c5ccc(Br)cc5)nn4)ccc32)nn1)c1ccc(Br)cc1` [Compound 8], in data set [1], the “% Inhibition ± SEM (µM)” value is on record as 23.27 ± 1.87% and the Cytotoxicity effect result was “Non-toxic”. Further, the “% Inhibition of cell viability (60 µM)” value in data set [1] (first replicate column) is reported as 19.52%. For the same molecule, the “% Inhibition of cell viability (60 µM)” value in data set [1] (second replicate column) is 25.14%. Moreover, in data set [1] (third replicate column), the “% Inhibition of cell viability (60 µM)” value is reported as 25.14%. Also, on prolyl endopeptidase, the IC50 was found to be 28.3 ± 0.64 µM. In the data set with prolyl endo peptidase, the “type (pattern) of inhibition” value is listed as “mixed” and affinity was put at a Ki of 23.67 ± 0.0084 µM.

`COc1ccc(C(=O)Cn2cc(Cn3c4ccccc4c4cc(-c5ccc6c(c5)c5ccccc5n6Cc5cn(CC(=O)c6ccc(OC)cc6)nn5)ccc43)nn2)cc1` [Compound 9]: in data set [1], the “% Inhibition ± SEM (µM)” value is on record as 19.16 ± 1.38%. Also, the Cytotoxicity effect entry in data set [1] is on record as “Non-toxic”. For the same molecule, the “% Inhibition of cell viability (60 µM)” value in data set [1] (first replicate column) was determined as 16.75%; in data set [1] (second replicate column), 21.55%; in data set [1] (third replicate column), 19.16%. Besides, on prolyl endopeptidase, the IC50 amounted to 31.1 ± 0.84 µM.

For the molecule Bacitracin [reference compound], the IC50 in the data set with prolyl endopeptidase was determined as 125 ± 1.5 µM.
